In brackets after ≈: the same amount, converted by molar mass.
Assays:
[1] = target: purified DHFR of the strain 157/4696 (highly trimethoprim-resistant; clinical isolate) of Staphylococcus aureus (Staphylococcus aureus, UniProt P13955); test: biochemical
From the text: The inhibition of the enzyme was taken as a measurement for the antibacterial activity.

[2] = target: T1, purified DHFR of strain Sp1/1 of Streptococcus pneumoniae (Streptococcus pneumoniae, UniProt Q54801); details: read-out: DHFR Spn1/1 (IC50); purified DHFR of S. pneumoniae strain Spn1/1; IC50 determined graphically
T1 sequence (Q54801 1-168): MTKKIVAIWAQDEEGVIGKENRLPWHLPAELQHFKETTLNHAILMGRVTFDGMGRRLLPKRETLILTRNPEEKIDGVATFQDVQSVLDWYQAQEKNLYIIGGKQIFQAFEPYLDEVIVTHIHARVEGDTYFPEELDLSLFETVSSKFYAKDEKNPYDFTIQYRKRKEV
From the text: 3: DHFR Spn1/1; μM—the IC50-values in μM against the purified DHFR of the above strain Sp1/1 of Streptococcus pneumoniae.

[3] = system: Staphylococcus aureus 101, MRSA and Trimethoprim-resistant; clinical isolate; test: MIC against Staphylococcus aureus 101; assay type: cell-based; details: read-out: MIC Sa101
Procedure: (§1) The following Table contains inhibitory concentrations determined in the above test for representative members of the class of compound defined by formula I. The following microorganisms were tested: […]
Col. 2: MIC Sa101; μg/ml (Staphylococcus aureus 101, MRSA^*)— and Trimethoprim-resistant; clinical isolate, stored at −80° C.)
^*) MRSA=Methicillin Resistant Staphylococcus Aureus

[4] = system: Streptococcus pneumoniae 1/1, Trimethoprim- and Penicillin-resistant, Serotype 6; clinical isolate; test: MIC against Streptococcus pneumoniae 1/1; assay type: cell-based; details: read-out: MIC Spn1/1
Procedure: as §1
Col. 1: MIC Spn1/1; μg/ml (Streptococcus pneumoniae 1/1, Trimethoprim- and Penicillin-resistant, Serotype 6; clinical isolate, stored at −80° C.)
Lit.: H. Locher et al., Can. J. Infect. Dis.6: Suppl. C, p 469C.

Compound: CCOc1cc(Cc2cnc(N)nc2N)cc2c1OC(C)(C)C=C2C [Example 8, 5-(8-Ethoxy-2,2,4-trimethyl-2H-chromen-6-ylmethyl)-pyrimidine-2,4-diamine]
- IC50 [1]: 1300 nM
- melting point: 216 to 218 °C
- IC50 [2]: 15 nM
- MIC [3]: 4 µg/mL (≈ 11.7 µM)
- MIC [4]: 2 µg/mL (≈ 5.87 µM)

Compound: CCOc1cc(Cc2cnc(N)nc2N)cc2c1OC(C)(C)C=C2CC [Example 9, 5-(8-Ethoxy-4-ethyl-2,2-dimethyl-2H-chromen-6-ylmethyl)-pyrimidine-2,4-diamine]
- IC50 [1]: 670 nM
- melting point: 222 to 225 °C (dec.)
- IC50 [2]: 12 nM
- MIC [3]: 4 µg/mL (≈ 11.3 µM)
- MIC [4]: 1 µg/mL (≈ 2.82 µM)

Compound: CCCC1=CC(C)(C)Oc2c(OCC)cc(Cc3cnc(N)nc3N)cc21 [Example 10, 5-(8-Ethoxy-2,2-dimethyl-4-propyl-2H-chromen-6-ylmethyl) -pyrimidine-2,4-diamine]
- IC50 [1]: 1100 nM
- melting point: 208 to 209 °C
- IC50 [2]: 15 nM
- MIC [3]: 4 µg/mL (≈ 10.9 µM)
- MIC [4]: 2 µg/mL (≈ 5.43 µM)

Compound: COCC#CC1=CC(C)(C)Oc2c(OC)cc(Cc3cnc(N)nc3N)cc21 [Example 16, 5-[8-Methoxy-4-(3-methoxy-prop-1-ynyl)-2,2-dimethyl-2H-chromen-6-ylmethyl]-pyrimidine-2,4-diamine]
- IC50 [1]: 220 nM
- melting point: 236 to 237 °C
- IC50 [2]: 680 nM
- MIC [3]: 4 µg/mL (≈ 10.5 µM)
- MIC [4]: > 8 µg/mL

Compound: CCOc1cc(Cc2cnc(N)nc2N)cc2c1OC1(C=C2Br)CCC1 [Example 30, 5-[(4-Bromo-8-ethoxyspiro[2H-1-benzopyran-2,1′-cyclobutan]-6-yl)methyl]-2,4-pyrimidinediamine]
- IC50 [1]: 210 nM
- melting point: 213 to 214 °C
- IC50 [2]: 8.9 nM
- MIC [3]: 2 µg/mL (≈ 4.79 µM)
- MIC [4]: 4 µg/mL (≈ 9.59 µM)
